This passage reports melting point results from patent US6387921B1 (dated 2002).

`CC1(C)[C@H]2Cc3c(N)cccc3[C@]1(C)CCN2CCOCc1c(F)cccc1F.Cl.Cl` returned a melting point of 270 °C.

Usually melting point stands for the temperature, or range, at which the solid turns liquid.
